Test results from patent US20080280933A1, “BENZIMIDAZOLYL COMPOUNDS” (priority 2006, published 2008).

Molecular target: T1, mGluR2 receptor (metabotropic glutamate receptor 2) (Homo sapiens, UniProt Q14416)
T1 construct: expressed in transfected cells
Test: mGluR2 Potentiator Screen, FLIPR, EC10-EC20 glutamate challenge
Assay type: cell-based
Settings: read-out: EC50
In short: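 HEK cells stably co-expressing mGluR2 and Gα15, kept glutamine-free overnight, were loaded with Fluo-4 plus probenecid and GPT/pyruvate. Compounds (top 10 μM) were added ≥30 min before an EC10–EC20 glutamate challenge. Peak FLIPR fluorescence ratios were curve-fitted, excluding points above maximal effect, with maxima from on-plate standards.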

T1 sequence (Q14416 19-872, species assumed): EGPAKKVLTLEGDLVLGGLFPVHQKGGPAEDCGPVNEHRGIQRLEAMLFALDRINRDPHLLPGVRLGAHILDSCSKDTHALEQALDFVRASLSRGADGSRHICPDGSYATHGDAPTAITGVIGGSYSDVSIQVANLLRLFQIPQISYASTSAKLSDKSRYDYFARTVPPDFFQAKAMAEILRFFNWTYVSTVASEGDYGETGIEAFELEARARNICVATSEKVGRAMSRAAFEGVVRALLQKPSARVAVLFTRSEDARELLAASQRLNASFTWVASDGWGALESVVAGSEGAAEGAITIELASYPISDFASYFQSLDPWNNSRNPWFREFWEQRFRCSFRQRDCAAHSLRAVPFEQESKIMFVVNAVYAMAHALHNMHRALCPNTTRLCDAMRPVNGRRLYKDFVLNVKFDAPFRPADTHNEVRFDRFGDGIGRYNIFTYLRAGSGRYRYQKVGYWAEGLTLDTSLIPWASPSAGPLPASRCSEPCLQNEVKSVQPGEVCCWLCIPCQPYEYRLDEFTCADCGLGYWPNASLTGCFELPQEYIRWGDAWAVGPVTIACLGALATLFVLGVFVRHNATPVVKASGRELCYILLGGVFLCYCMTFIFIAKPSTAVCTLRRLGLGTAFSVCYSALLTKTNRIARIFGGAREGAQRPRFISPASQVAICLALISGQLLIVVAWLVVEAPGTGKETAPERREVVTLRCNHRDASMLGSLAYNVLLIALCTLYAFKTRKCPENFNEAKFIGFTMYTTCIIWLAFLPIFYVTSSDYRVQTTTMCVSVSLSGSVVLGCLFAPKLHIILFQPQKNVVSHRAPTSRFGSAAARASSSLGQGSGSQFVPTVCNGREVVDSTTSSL

Row | SMILES | EC50 [nM]
1 | COc1ccc(F)cc1C1CCN(Cc2nc3ccccc3n2C)CC1 [compound 300] | 60.7
2 | Cc1cccc2nc(CN3CCC(c4ccccc4F)CC3)n(C)c12 [compound 301] | 42.3
3 | Cc1cc(C)cc(C2CCN(Cc3nc4ccccc4n3C)CC2)c1 [compound 302] | 37.4
4 | Cn1c(CN2CCCC(c3ccc(C(F)(F)F)cc3)CC2)nc2ccccc21 (stereo not drawn) [compound 303] | 868
5 | COc1ccccc1C1CCCN(Cc2nc3ccccc3n2C)CC1 (stereo not drawn) [compound 304] | 276
6 | Cn1c(CN2CCCC(c3ccccc3)CC2)nc2ccccc21 (stereo not drawn) [compound 305] | 235
7 | Cn1c(CN2CCCC(c3ccccc3F)CC2)nc2ccccc21 (stereo not drawn) [compound 306] | 1590
8 | Cn1c(CN2CCC(c3ccccc3F)CC2)nc2cccc(C#N)c21 [compound 307] | 31.4
9 | Cn1c(CN2CCC(c3ccccc3F)CC2)nc2cccc(-c3ccccc3)c21 [compound 308] | 151
10 | COc1ccc(-c2cccc3nc(CN4CCC(c5ccccc5F)CC4)n(C)c23)cn1 [compound 309] | 112
11 | Cc1cc(F)ccc1C1CCN(Cc2nc3ccccc3n2C)CC1 [compound 310] | 43.3
12 | Cn1c(CN2CCC(c3cc(F)ccc3F)CC2)nc2ccccc21 [compound 311] | 16.1
13 | Cn1c(CN2CCC(c3ccccc3F)CC2)nc2cccc(Br)c21 [compound 312] | 60.1
14 | CC(O)c1ccccc1C1CCN(Cc2nc3ccccc3n2C)CC1 (stereo not drawn) [compound 313] | 361
15 | Cn1c(CN2CCC(c3ccc(C(F)(F)F)cc3)CC2)nc2c(F)cccc21 [compound 314] | 43.8
16 | Cc1ccc(C2CCN(Cc3nc4ccccc4n3C)CC2)cc1C [compound 315] | 308
17 | Cn1c(CN2CCC(c3ccc(C(F)(F)F)cc3)CC2)nc2cc(C#N)ccc21 [compound 317] | 90.7
18 | COc1ccc(C(F)(F)F)cc1C1CCN(Cc2nc3ccccc3n2C2CC2)CC1 [compound 318] | 4690
19 | COc1ccc(C(F)(F)F)cc1C1CCN(Cc2nc3ccccc3n2CCF)CC1 [compound 319] | 1650
20 | COCn1c(CN2CCC(c3cc(C(F)(F)F)ccc3OC)CC2)nc2ccccc21 [compound 320] | 3800

Row | SMILES | EC50 [nM]
21 | COc1ccc(C(F)(F)F)cc1C1CCN(Cc2nc3cc(F)c(F)cc3n2C)CC1 [compound 321] | 1510
22 | COc1ccccc1[C@]1(C)CCN(Cc2nc3ccccc3n2C2CC2)C[C@@H]1C [compound 322] | 9930
23 | COCCn1c(CN2CCC(c3cc(C(F)(F)F)ccc3OC)CC2)nc2ccccc21 [compound 323] | 984
24 | COCCn1c(CN2CCC(c3cc(C(F)(F)F)ccc3F)CC2)nc2ccccc21 [compound 326] | 263
25 | Fc1ccc(C(F)(F)F)cc1C1CCN(Cc2nc3ccccc3n2C2CC2)CC1 [compound 327] | 1980
26 | Cn1c(CN2CCC(c3cc(C(F)(F)F)ccc3F)CC2)nc2cc(F)c(F)cc21 [compound 328] | 463
27 | FCCn1c(CN2CCC(c3cc(C(F)(F)F)ccc3F)CC2)nc2ccccc21 [compound 329] | 463
28 | COCn1c(CN2CCC(c3cc(C(F)(F)F)ccc3F)CC2)nc2ccccc21 [compound 330] | 969
29 | Cn1c(CN2CCC(c3ccc(F)cc3)CC2)nc2cc(C#N)ccc21 [compound 331] | 299
30 | COc1ccccc1C1(OC)CCN(Cc2nc3ccccc3n2C)CC1C (stereo not drawn) [compound 332] | 5220
31 | COc1ccccc1C1(OC)CCN(Cc2nc3c(Br)cccc3n2C)CC1C (stereo not drawn) [compound 333] | 4760
32 | COc1ccccc1C1(OC)CCN(Cc2nc3ccccc3n2CF)CC1C (stereo not drawn) [compound 334] | > 7080
33 | COc1ccccc1C1(OC)CCN(Cc2nc3ccccc3n2CCF)CC1C (stereo not drawn) [compound 335] | 10400
34 | Cn1c(CN2CCC(c3ccc(OC(F)(F)F)cc3)CC2)nc2ccccc21 [compound 340] | 200
35 | Cn1c(CN2CCC(c3ccc(C(F)(F)F)cc3)CC2)nc2cccc(F)c21 [compound 341] | 633
36 | Cn1c(CN2CCC(c3ccc(F)cc3)CC2)nc2cccc(F)c21 [compound 342] | 55.2
37 | COc1ccccc1C1CCN(Cc2nc3cccc(F)c3n2C)CC1 [compound 343] | 16.6
38 | Cn1c(CN2CCC(c3ccccc3F)CC2)nc2cccc(F)c21 [compound 344] | 20.6
39 | Cn1c(CN2CCC(c3ccc(C(F)(F)F)cc3)CC2)nc2cc(Cl)ccc21 [compound 345] | 1600
40 | Cn1c(CN2CCC(c3cc(C(F)(F)F)cc(C(F)(F)F)c3)CC2)nc2ccccc21 [compound 348] | 201

Row | SMILES | EC50 [nM]
41 | COc1cc(C(F)(F)F)ccc1C1CCN(Cc2nc3cc(F)ccc3n2C)CC1 [compound 349] | 34.9
42 | Cn1c(CN2CCC(c3ccc(C(F)(F)F)cc3)CC2)nc2cc(F)ccc21 [compound 350] | 147
43 | Cn1c(CN2CCC(c3ccccc3F)CC2)nc2cc(F)ccc21 [compound 351] | 87.7
44 | Cn1c(CN2CCC(c3ccccc3F)CC2)nc2cc(F)ccc21 [compound 352] | 88.5
45 | Cn1c(CN2CCC(c3ccc(C(F)(F)F)cc3F)CC2)nc2cc(F)ccc21 [compound 353] | < 40.2
46 | COc1cc(C(F)(F)F)ccc1C1CCN(Cc2nc3ccccc3n2C)CC1 [compound 355] | 66.7
47 | COc1cc(C(F)(F)F)ccc1C1CCN(Cc2nc3c(Br)cccc3n2C)CC1 [compound 356] | 3900
48 | COc1cc(C(F)(F)F)ccc1C1CCN(Cc2nc3ccccc3n2CCF)CC1 [compound 357] | 105
49 | COCn1c(CN2CCC(c3ccc(C(F)(F)F)cc3OC)CC2)nc2ccccc21 [compound 358] | 471
50 | COc1cc(C(F)(F)F)ccc1C1CCN(Cc2nc3ccccc3n2C2CC2)CC1 [compound 359] | 940
51 | COc1cc(C(F)(F)F)ccc1C1CCN(Cc2nc3cc(F)c(F)cc3n2C)CC1 [compound 360] | 266
52 | Cn1c(CN2CCC(c3ccc(C(F)(F)F)cc3)CC2)nc2cc(C(F)(F)F)ccc21 [compound 362] | 5010
53 | Cn1c(CN2CCC(c3ccc(C(F)(F)F)cc3)CC2)nc2cc(C(N)=O)ccc21 [compound 364] | 498
54 | COCn1c(CN2CCC(c3ccc(F)cc3)CC2)nc2ccccc21 [compound 365] | 1670
55 | Cn1c(CN2CCC(c3ccc(F)cc3)CC2)nc2c(Br)cccc21 [compound 366] | 2140
56 | COCCn1c(CN2CCC(c3ccc(F)cc3)CC2)nc2ccccc21 [compound 367] | 905
57 | Cn1c(CN2CCC(c3ccc(F)cc3)CC2)nc2cc(F)c(F)cc21 [compound 368] | 475
58 | COc1cccc(C2CCN(Cc3nc4cc(F)ccc4n3C)CC2)c1 [compound 378] | 568
59 | COc1cccc(C2CCN(Cc3nc4cc(Cl)ccc4n3C)CC2)c1 [compound 385] | 2760

Now from value to compound:

Row | EC50 [nM] | SMILES
60 | 1770 | Fc1ccc(C2CCN(Cc3nc4ccccc4n3C3CC3)CC2)cc1 [compound 369]
61 | 582 | FCCn1c(CN2CCC(c3ccc(F)cc3)CC2)nc2ccccc21 [compound 370]
62 | 692 | CC(C)Oc1ccccc1C1CCN(Cc2nc3cc(F)ccc3n2C)CC1 [compound 371]
63 | 308 | Cn1c(CN2CCC(c3cc(Cl)ccc3F)CC2)nc2cc(F)ccc21 [compound 372]
64 | 1750 | Cn1c(CN2CCC(c3ccccc3C(F)(F)F)CC2)nc2cc(Cl)ccc21 [compound 373]
65 | 245 | Cn1c(CN2CCC(c3cccc(C(F)(F)F)c3)CC2)nc2cc(F)ccc21 [compound 374]
66 | 348 | Cn1c(CN2CCC(c3cc(C(F)(F)F)ccc3F)CC2)nc2cc(F)ccc21 [compound 375]
67 | 299 | Cn1c(CN2CCC(c3cc(F)cc(F)c3)CC2)nc2cc(F)ccc21 [compound 376]
68 | 853 | COc1ccc(C(F)(F)F)cc1C1CCN(Cc2nc3cc(F)ccc3n2C)CC1 [compound 377]
69 | 1570 | CC(C)Oc1ccccc1C1CCN(Cc2nc3cc(Cl)ccc3n2C)CC1 [compound 379]
70 | 1730 | Cn1c(CN2CCC(c3cc(Cl)ccc3F)CC2)nc2cc(Cl)ccc21 [compound 380]
71 | 1590 | Cn1c(CN2CCC(c3cccc(C(F)(F)F)c3)CC2)nc2cc(Cl)ccc21 [compound 381]
72 | 7060 | Cn1c(CN2CCC(c3cc(F)cc(F)c3)CC2)nc2cc(Cl)ccc21 [compound 382]
73 | 307 | COc1cc(C(F)(F)F)ccc1C1CCN(Cc2nc3cc(Cl)ccc3n2C)CC1 [compound 383]
74 | 493 | Cn1c(CN2CCC(c3ccc(C(F)(F)F)cc3F)CC2)nc2cc(Cl)ccc21 [compound 384]
75 | > 3740 | COc1ccc(C(F)(F)F)cc1C1CCN(Cc2nc3cc(Cl)ccc3n2C)CC1 [compound 386]
76 | 201 | Cn1c(CN2CCC(c3cc(Cl)ccc3F)CC2)nc2cc(C#N)ccc21 [compound 387]
77 | 583 | COc1ccc(C(F)(F)F)cc1C1CCN(Cc2nc3cc(C#N)ccc3n2C)CC1 [compound 388]
78 | 285 | Cn1c(CN2CCC(c3cccc(C(F)(F)F)c3)CC2)nc2cc(C#N)ccc21 [compound 389]
79 | 52 | COc1cc(C(F)(F)F)ccc1C1CCN(Cc2nc3cc(C#N)ccc3n2C)CC1 [compound 390]
80 | 44.4 | Cn1c(CN2CCC(c3ccc(C(F)(F)F)cc3F)CC2)nc2cc(C#N)ccc21 [compound 391]
81 | 441 | Cn1c(CN2CCC(c3cc(C(F)(F)F)ccc3F)CC2)nc2cc(C#N)ccc21 [compound 392]
82 | 1030 | CC(C)Oc1ccccc1C1CCN(Cc2nc3c(F)cccc3n2C)CC1 [compound 393]
83 | 232 | Cn1c(CN2CCC(c3ccccc3C(F)(F)F)CC2)nc2c(F)cccc21 [compound 394]
84 | 328 | Cn1c(CN2CCC(c3cc(F)cc(F)c3)CC2)nc2c(F)cccc21 [compound 395]
85 | 123 | Cn1c(CN2CCC(c3cccc(C(F)(F)F)c3)CC2)nc2c(F)cccc21 [compound 396]
86 | 435 | COc1ccc(C(F)(F)F)cc1C1CCN(Cc2nc3c(F)cccc3n2C)CC1 [compound 397]
87 | 40.2 | Cn1c(CN2CCC(c3ccc(C(F)(F)F)cc3F)CC2)nc2c(F)cccc21 [compound 398]
